Experimental data reported in patent US4780462A, “Antihypertensive 1,5-benzothiazepine derivatives and compositions thereof” (Kotokuki Seiya Kau Co., Ltd., priority 1986, dated 1988).

Columns and labels:
Guinea-pig taenia caecum = assay: Ca++-antagonistic activity (isolated guinea-pig taenia caecum); conditions: Cavia porcellus, 0.05 h; Ca++-induced contraction of taenia caecum, Ca++-free Krebs Ringer; pretreatment with compound 3 minutes before; read-out: PA2 value (converted)
Description: Ca^++ -Antagonistic activity. Experiments are carried out according to the method of M. Ferrari (Arch. Intern. Pharmacoadyn. 174, 223 (1968) Guinea-pig taenia caecum is isolated and suspended in a bath which is filled with Ca^++ -free Krebs Ringer solution for 30 minutes. In this condition, taenia caecum is contracted by elevating Ca^++ -ion concentration of Krebs Ringer and obtained a dose-response curve against Ca^++ -ion. Pretreatment with the compound of this invention before 3 minutes, and obtained a dose-response curve under the existence of the compound of this invention.
From these two dose-response curves, PA2 value is calculated and PA2 is expressed as index of activities. (Table 1)

[1] = test system: anesthetized normotensive rats; assay: Antihypertensive activity on anesthetized normotensive rats; type: in vivo; conditions: dose which lowers the mean blood pressure by 15 mmHg, i.v. (femoral vein); urethane anesthetized normotensive male Wistar rats
Description: The antihypertensive activities of the compounds on anesthetized normotensive rats were tested according to the method of H. Sogabe.^(1) Male Wistar rats weighing 200-300 g were anesthetized with urethane (1.2 g/kg. i.v.). Blood pressure was measured by a transducer (Nihon Koden RT-5) connected the catheter inserted into the femoral artery. The test compounds in physiological saline (0.1 ml/100 g. B.W.) were injected via the femoral vein. The antihypertensive activity was assessed by comparing with MBP15 (dose which lowers the mean blood pressure by 15 mmHg, mg/kg i.v.).
(1) Hirobumi Sogabe "Jikken Kouketsuatsushou nyuumon" p227 (Eikoudo 1968).

[2] = Acute toxicity in mice per os; conditions: mouse, in vivo, po
Description: The acute toxicity of the compounds of this invention in mice per os is as follows. (Table 4)

[3] = test system: isolated guinea-pig heart; assay: Coronary artery dilating activity (Rangendorf method, isolated guinea-pig heart); conditions: coronary blood flow examined for 2 minutes
Description: The coronary artery dilating activity of the compounds is estimated by Rangendorf method (Pfugers. Arch. Ges. Physiol. 62, 291 (1895)) using the isolated guinea-pig heart.

| Compound | Kb (Guinea-pig taenia caecum) | Antihypertensive act. (M.B.P.15) [1] | maximum increased blood flow ([3]; 10 μg/heart) | maximum increased blood flow ([3]; 30 μg/heart) | other results |
| --- | --- | --- | --- | --- | --- |
| COc1cccc(OC)c1OCCNCCC(=O)N1CCCSc2ccccc21 [Compound 1, 5-[3-(2-(2-,6-dimethoxyphenoxy)ethylamino)-propionyl]-2,3,4,5-tetrahydro-1,5-benzothiazepine·fumarate] | 813 nM |  |  |  |  |
| CC(C)c1cccc(C(C)C)c1OCCNCCC(=O)N1CCCSc2ccccc21 [Compound 3, 5-[3-(2-(2,6-diisopropylphenoxy)ethylamino)-propionyl]-2,3,4,5-tetrahydro-1,5-benzothiazepine·fumarate] |  | 1.35 µg |  |  | LD50 [2]: 1500 mg/kg |
| Cc1cccc(C)c1OCCNCCC(=O)N1CCCSc2ccccc21 [Compound 4, 5-[3-(2-(2,6-dimethylphenoxy)ethylamino)propionyl]-2,3,4,5-tetrahydro-1,5-benzothiazepine·fumarate] | 102 nM |  | 7.2 mL | 19.2 mL |  |
| O=C(CCNCCSc1ccc([N+](=O)[O-])cc1)N1CCCSc2ccccc21 [Compound 5, 5-[3-(2-(4-nitrophenylthio)ethylamino)propionyl]-2,3,4,5-tetrahydro-1,5-benzothiazepine·fumarate] | 97.7 nM | 2.0 µg |  |  |  |
| Nc1cccc(OCCNCCC(=O)N2CCCSc3ccccc32)c1 [Compound 6, 5-[3-(2-(3-aminophenoxy)ethylamino)propionyl]-2,3,4,5-tetrahydro-1,5-benzothiazepine·fumarate] |  |  | 4.6 mL | 6.0 mL |  |
| O=C(CCNCCOc1cccc([N+](=O)[O-])c1)N1CCCSc2ccccc21 [Compound 7, 5-[3-(2-(3-nitrophenoxy)ethylamino)propionyl]-2,3,4,5-tetrahydro-1,5-benzothiazepine·fumarate] | 245 nM | 4.2 µg |  |  |  |
| COc1ccc(OCCNCCC(=O)N2CCCSc3ccccc32)cc1 [Compound 8, 5-[3-(2-(4-methoxyphenoxy)ethylamino)propionyl]-2,3,4,5-tetrahydro-1,5-benzothiazepine·fumarate] | 603 nM |  |  |  |  |
| Cc1cccc(OCCNCCC(=O)N2CCCSc3ccccc32)c1 [Compound 11, 5-[3-(2-(3-methylphenoxy)ethylamino)propionyl]-2,3,4,5-tetrahydro-1,5-benzothiazepine·fumarate] |  | 34.7 µg |  | 16.5 mL | maximum increased blood flow ([3]; 3 μg/heart): 7.7 mL |
| Cc1cc(C)c(OCCNCCC(=O)N2CCCSc3ccccc32)c(C)c1 [Compound 12, 5-[3-(2-(2,4,6-trimethylphenoxy)ethylamino)propionyl]-2,3,4,5-tetrahydro-1,5-benzothiazepine·fumarate] | 55 nM |  | 11.3 mL | 18.3 mL |  |
| O=C(CCNCCOc1ccc(Cl)cc1Cl)N1CCCSc2ccccc21 [Compound 13, 5-[3-(2-(2,4-dichlorophenoxy)ethylamino)propionyl]-2,3,4,5-tetrahydro-1,5-benzothiazepine·fumarate] | 126 nM | 3.5 µg |  |  |  |
| Nc1ccccc1OCCNCCC(=O)N1CCCSc2ccccc21 [Compound 15, 5-[3-(2-(2-aminophenoxy)ethylamino)propionyl]-2,3,4,5-tetrahydro-1,5-benzothiazepine·fumarate] |  |  |  | 2.0 mL | LD50 [2]: 374 mg/kg |
| O=C(CCNCCOc1ccc([N+](=O)[O-])cc1)N1CCCSc2ccccc21 [Compound 16, 5-[3-(2-(4-nitrophenoxy)ethylamino)propionyl]-2,3,4,5-tetrahydro-1,5-benzothiazepine·fumarate] |  |  | 4.2 mL |  |  |
| Cc1cccc(C)c1SCCNCCC(=O)N1CCCSc2ccccc21 [Compound 17, 5-[3-(2-(2,6-dimethylphenylthio)ethylamino)propionyl]-2,3,4,5-tetrahydro-1,5-benzothiazepine·fumarate] |  | 9.3 µg |  |  |  |
